Source: patent publication US20240247042A1, “GLUCAGON LIKE PEPTIDE COMPOUNDS” (Novartis AG, priority 2021, published 2024)

Legend:
Type in all cases: cell-based
human GLP1R [1] = target: T1, human GLP1R (Homo sapiens, UniProt P43220); test: Human GLP1R DERET recycling assay; details: for Receptor recycled mean: maximum receptor recycled as proportion of amount internalized; for T1/2 mean: rate at which receptor recycled back to the membrane after Exendin 9-39
human GLP1R (hGLP1R) [2] = target: T2, human GLP1R (hGLP1R) (Homo sapiens, UniProt P43220); test: Human GLP1R cAMP agonist assay (GloSensor)
Target sequence in this assay (P43220 24-463): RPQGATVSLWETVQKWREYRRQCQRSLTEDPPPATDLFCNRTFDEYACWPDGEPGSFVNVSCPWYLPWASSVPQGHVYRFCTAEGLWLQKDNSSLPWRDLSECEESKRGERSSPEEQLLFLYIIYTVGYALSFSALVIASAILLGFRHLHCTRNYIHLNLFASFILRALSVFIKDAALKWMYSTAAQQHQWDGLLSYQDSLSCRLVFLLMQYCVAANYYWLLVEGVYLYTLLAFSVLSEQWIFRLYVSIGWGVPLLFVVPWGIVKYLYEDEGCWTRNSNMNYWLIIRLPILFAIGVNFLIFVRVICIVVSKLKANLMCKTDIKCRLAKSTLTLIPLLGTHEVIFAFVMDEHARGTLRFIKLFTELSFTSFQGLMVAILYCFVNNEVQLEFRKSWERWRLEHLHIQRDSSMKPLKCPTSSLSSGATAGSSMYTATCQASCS
Description: Compounds described herein were tested in the following cellular assays that measures the intracellular cAMP concentration. The cAMP is generated by the activation of GLP1R. EC50 is defined as the concentration of the compound that leads to half of the maximum response (after baseline correction).
The agonist activity of compounds was determined using the GloSensor™ cAMP Assay (Promega Corp.), which measures changes in the intracellular concentration of cAMP after ligand activation of GPCRs. The assay uses a biosensor encoded by pGloSensor™-22F cAMP plasmid (Promega, cat #E2301) with cAMP binding domains fused to a mutant form of Photinus pyralis luciferase. Binding to cAMP causes conformational changes that promote large increases in light output, which can be measured by a luminescence detector. […] The assay was started the following morning by adding an equal volume of CO2-independent media containing 4% v/v dilution of the GloSensor substrate (Promega, cat #E1291) to all wells. The cell plate was incubated at RT for 2 h in the dark. The Biomek i7 (Beckman Coulter) instrument was used for the liquid handling steps. To generate duplicate dose response curves, 3-fold serially diluted compounds were added in to the cell assay plate to a final volume of 60 μL with final concentrations ranging from 100 nM through 0.03 pM in CO2-independent media containing 0.1% BSA, 0.5 mM IBMX and 0.4% DMSO. […] Curve fitting for EC50 determinations was performed in the Helios module of the software package DAVID. The 4-parameter logistic model, Hill slope was used: y=Ainf+(A0−Ainf)/(1+(x/AC50)^Hill Slope), where y is the functional response; x is the compound concentration; A0 is the minimum value (at 0 dose); Ainf is the maximum value (at infinite dose); AC50 corresponds to the point of inflection (i.e., the point on the sigmoid shaped curve halfway between A0 and Ainf). The EC50 value was represented by the AC50 value calculated from Helios in μM. Emax is the maximal activity detected within the concentration range, derived from the fitted curve.
The HEK293-SNAP-hGLP1R stable cell clone that yielded the desired response was used for human GLP1R cAMP agonist assay.

human GLP1R [3] = target: T1, human GLP1R; test: Human GLP1R DERET internalization assay
human GLP1R (hGLP1R) [4] = target: T2, human GLP1R (hGLP1R); test: Human GLP1R β-arrestin recruitment assay (PathHunter); parameters: GeneArt (insert) 93-0164 (CHO-K1-EA parental cells); 93-0491 (pCMV PK vector bundle); host or cells: PathHunter CHO-K1-EA parental cells, single clone 1; details: for EC50: CHO-hGLP1R-β-arrestin cells
Target sequence in this assay (P43220 24-463): as above
Target sequence in this assay (P32121 whole entry partner): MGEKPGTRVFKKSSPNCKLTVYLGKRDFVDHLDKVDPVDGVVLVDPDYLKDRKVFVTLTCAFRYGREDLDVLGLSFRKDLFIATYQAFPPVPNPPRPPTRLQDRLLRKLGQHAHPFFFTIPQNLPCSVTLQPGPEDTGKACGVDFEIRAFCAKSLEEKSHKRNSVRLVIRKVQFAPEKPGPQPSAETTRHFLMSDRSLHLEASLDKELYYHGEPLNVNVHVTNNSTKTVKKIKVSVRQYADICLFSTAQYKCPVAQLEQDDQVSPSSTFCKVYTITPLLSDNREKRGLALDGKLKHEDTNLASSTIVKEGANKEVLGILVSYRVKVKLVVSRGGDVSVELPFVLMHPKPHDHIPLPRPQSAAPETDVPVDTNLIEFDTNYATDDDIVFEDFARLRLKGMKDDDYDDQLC
Description: The extent to which agonists recruited β-arrestin was measured using the PathHunter® β-arrestin assay (DiscoverX). This assay measures binding of β-arrestin to the receptor using an enzyme complementation approach. […] When β-arrestin is recruited to the receptor the enzyme becomes active and generates luminescence in the presence of a chemiluminescent substrate (PathHunter® Detection Kit, DiscoverX cat #93-0001). Luminescence can be measured on a relevant detector. […] The following day, agonists were prepared at 5 times the final required concentration. To generate triplicate dose response curves, compounds were serially diluted 3-fold in assay buffer (HBSS, 10 mM Hepes and 0.1% BSA), then added to the cell assay plate to a final volume of 25 μL and final top concentrations starting at 3 μM or less, depending on the compound. […] The plate was incubated at 37° C., 5% CO2 with humidity for 2 h after adding the compounds to the cells. […] The plate was incubated for an additional hour in the dark at RT. […] Curve fitting for EC50 determinations was performed using GraphPad Prism. The 4-parameter logistic model, Hill slope was used: Y=Bottom+(Top−Bottom)/(1+10^((Log EC50−X)*Hill Slope)), where Y is the functional response; X is the compound concentration; bottom is A0 or the minimum value (at 0 dose); top is Ainf or the maximum value (at infinite dose); EC50 is the point of inflection (i.e., the point on the sigmoid shaped curve halfway between A0 and Ainf). The EC50 value was calculated in μM.

T1 sequence (P43220 24-463): as the sequence (P43220 24-463) above

EC50 (human GLP1R [3]; receptor internalization, HEK293-SNAP-hGLP1R-GloSensor cells) | Structure (SMILES) | Receptor recycled mean (human GLP1R [1]) | T1/2 mean (human GLP1R [1]) | Emax (human GLP1R (hGLP1R) [2]) | Emax (human GLP1R [3]) | Emax (human GLP1R (hGLP1R) [4]) | EC50 (human GLP1R (hGLP1R) [4])
 | CCCCCCCCCCC[C@](CCCCCCCCCCC(=O)O)(C(=O)O)C(=O)NCCOCCOCCOCCOCCOCCOCCOCCOCCOCCOCCOCCOCCOCCOCCOCCOCCOCCOCCOCCOCCOCCOCCOCCOCCC(=O)NCCCC[C@H](NC(=O)[C@H](C)NC(=O)[C@H](C)NC(=O)[C@H](CCC(N)=O)NC(=O)CNC(=O)[C@H](CCC(=O)O)NC(=O)[C@H](CC(C)C)NC(=O)[C@H](Cc1ccc(O)cc1)NC(=O)[C@H](CO)NC(=O)[C@H](CO)NC(=O)[C@@H](NC(=O)[C@H](CC(=O)O)NC(=O)[C@H](CO)NC(=O)[C@@H](NC(=O)[C@H](Cc1ccccc1)NC(=O)[C@@H](NC(=O)CNC(=O)[C@H](CCC(=O)O)NC(=O)C(C)(C)NC(=O)[C@@H](N)Cc1c[nH]cn1)[C@@H](C)O)[C@@H](C)O)C(C)C)C(=O)N[C@@H](CCC(=O)O)C(=O)N[C@@H](Cc1ccccc1)C(=O)N[C@H](C(=O)N[C@@H](C)C(=O)N[C@@H](Cc1c[nH]c2ccccc12)C(=O)N[C@@H](CC(C)C)C(=O)N[C@H](C(=O)N[C@@H](CCCNC(=N)N)C(=O)NCC(=O)N[C@@H](CCCNC(=N)N)C(=O)NCC(=O)O)C(C)C)[C@@H](C)CC [Compound 3] | 69% | 1.24 h |  |  |  | 
 | CCCCCCCCCCC[C@@](CCCCCCCCCCC(=O)O)(C(=O)O)C(=O)NCCOCCOCCOCCOCCOCCOCCOCCOCCOCCOCCOCCOCCOCCOCCOCCOCCOCCOCCOCCOCCOCCOCCOCCOCCC(=O)NCCCC[C@H](NC(=O)[C@H](C)NC(=O)[C@H](C)NC(=O)[C@H](CCC(N)=O)NC(=O)CNC(=O)[C@H](CCC(=O)O)NC(=O)[C@H](CC(C)C)NC(=O)[C@H](Cc1ccc(O)cc1)NC(=O)[C@H](CO)NC(=O)[C@H](CO)NC(=O)[C@@H](NC(=O)[C@H](CC(=O)O)NC(=O)[C@H](CO)NC(=O)[C@@H](NC(=O)[C@H](Cc1ccccc1)NC(=O)[C@@H](NC(=O)CNC(=O)[C@H](CCC(=O)O)NC(=O)C(C)(C)NC(=O)[C@@H](N)Cc1c[nH]cn1)[C@@H](C)O)[C@@H](C)O)C(C)C)C(=O)N[C@@H](CCC(=O)O)C(=O)N[C@@H](Cc1ccccc1)C(=O)N[C@H](C(=O)N[C@@H](C)C(=O)N[C@@H](Cc1c[nH]c2ccccc12)C(=O)N[C@@H](CC(C)C)C(=O)N[C@H](C(=O)N[C@@H](CCCNC(=N)N)C(=O)NCC(=O)N[C@@H](CCCNC(=N)N)C(=O)NCC(=O)O)C(C)C)[C@@H](C)CC [Compound 2] | 68% | 1.19 h | 115% |  |  | 
 | CC[C@H](C)[C@H](NC(=O)[C@H](Cc1ccccc1)NC(=O)[C@H](CCC(=O)O)NC(=O)[C@H](CCCCNC(=O)CCOCCOCCOCCOCCOCCOCCOCCOCCOCCOCCOCCOCCOCCOCCOCCOCCOCCOCCOCCOCCOCCOCCOCCOCCNC(=O)C(CCCCCCCCCCCC(=O)O)(CCCCCCCCCCCC(=O)O)C(=O)O)NC(=O)[C@H](C)NC(=O)[C@H](C)NC(=O)[C@H](CCC(N)=O)NC(=O)CNC(=O)[C@H](CCC(=O)O)NC(=O)[C@H](CC(C)C)NC(=O)[C@H](Cc1ccc(O)cc1)NC(=O)[C@H](CO)NC(=O)[C@H](CO)NC(=O)[C@@H](NC(=O)[C@H](CC(=O)O)NC(=O)[C@H](CO)NC(=O)[C@@H](NC(=O)[C@H](Cc1ccccc1)NC(=O)[C@@H](NC(=O)CNC(=O)[C@H](CCC(=O)O)NC(=O)C(C)(C)NC(=O)[C@@H](N)Cc1c[nH]cn1)[C@@H](C)O)[C@@H](C)O)C(C)C)C(=O)N[C@@H](C)C(=O)N[C@@H](Cc1c[nH]c2ccccc12)C(=O)N[C@@H](CC(C)C)C(=O)N[C@H](C(=O)N[C@@H](CCCNC(=N)N)C(=O)NCC(=O)N[C@@H](CCCNC(=N)N)C(=O)NCC(=O)O)C(C)C [Compound 7] | 71% | 1.27 h |  | 77% | 82% | 
 | CCCCCCCCCCCC(CCCCCCCCCCC(=O)O)(C(=O)O)C(=O)NCCOCCOCCOCCOCCOCCOCCOCCOCCOCCOCCOCCOCCOCCOCCOCCOCCOCCOCCOCCOCCOCCOCCOCCOCCC(=O)NCCCC[C@H](NC(=O)[C@H](C)NC(=O)[C@H](C)NC(=O)[C@H](CCC(N)=O)NC(=O)CNC(=O)[C@H](CCC(=O)O)NC(=O)[C@H](CC(C)C)NC(=O)[C@H](Cc1ccc(O)cc1)NC(=O)[C@H](CO)NC(=O)[C@H](CO)NC(=O)[C@@H](NC(=O)[C@H](CC(=O)O)NC(=O)[C@H](CO)NC(=O)[C@@H](NC(=O)[C@H](Cc1ccccc1)NC(=O)[C@@H](NC(=O)CNC(=O)[C@H](CCC(=O)O)NC(=O)C(C)(C)NC(=O)[C@@H](N)Cc1c[nH]cn1)[C@@H](C)O)[C@@H](C)O)C(C)C)C(=O)N[C@@H](CCC(=O)O)C(=O)N[C@@H](Cc1ccccc1)C(=O)N[C@H](C(=O)N[C@@H](C)C(=O)N[C@@H](Cc1c[nH]c2ccccc12)C(=O)N[C@@H](CC(C)C)C(=O)N[C@H](C(=O)N[C@@H](CCCNC(=N)N)C(=O)NCC(=O)N[C@@H](CCCNC(=N)N)C(=O)NCC(=O)O)C(C)C)[C@@H](C)CC (stereo partly drawn) [Compound 1] | 65% |  | 105% |  |  | 
 | CCCCCCCCCCCC(CCCCCCCCCCC(=O)O)(C(=O)O)C(=O)NCCOCCOCCOCCOCCOCCOCCOCCOCCC(=O)NCCCC[C@H](NC(=O)[C@H](C)NC(=O)[C@H](C)NC(=O)[C@H](CCC(N)=O)NC(=O)CNC(=O)[C@H](CCC(=O)O)NC(=O)[C@H](CC(C)C)NC(=O)[C@H](Cc1ccc(O)cc1)NC(=O)[C@H](CO)NC(=O)[C@H](CO)NC(=O)[C@@H](NC(=O)[C@H](CC(=O)O)NC(=O)[C@H](CO)NC(=O)[C@@H](NC(=O)[C@H](Cc1ccccc1)NC(=O)[C@@H](NC(=O)CNC(=O)[C@H](CCC(=O)O)NC(=O)C(C)(C)NC(=O)[C@@H](N)Cc1c[nH]cn1)[C@@H](C)O)[C@@H](C)O)C(C)C)C(=O)N[C@@H](CCC(=O)O)C(=O)N[C@@H](Cc1ccccc1)C(=O)N[C@H](C(=O)N[C@@H](C)C(=O)N[C@@H](Cc1c[nH]c2ccccc12)C(=O)N[C@@H](CC(C)C)C(=O)N[C@H](C(=O)N[C@@H](CCCNC(=N)N)C(=O)NCC(=O)N[C@@H](CCCNC(=N)N)C(=O)NCC(=O)O)C(C)C)[C@@H](C)CC (stereo partly drawn) [Compound 4] | 65% |  | 119% | 100% | 84% | 
 | CC[C@H](C)[C@H](NC(=O)[C@H](Cc1ccccc1)NC(=O)[C@H](CCC(=O)O)NC(=O)[C@H](CCCCNC(=O)CCOCCOCCOCCOCCOCCOCCOCCOCCOCCOCCOCCOCCOCCOCCOCCOCCOCCOCCOCCOCCOCCOCCOCCOCCNC(=O)C(CCCCCCCCCCC(=O)O)(CCCCCCCCCCC(=O)O)C(=O)O)NC(=O)[C@H](C)NC(=O)[C@H](C)NC(=O)[C@H](CCC(N)=O)NC(=O)CNC(=O)[C@H](CCC(=O)O)NC(=O)[C@H](CC(C)C)NC(=O)[C@H](Cc1ccc(O)cc1)NC(=O)[C@H](CO)NC(=O)[C@H](CO)NC(=O)[C@@H](NC(=O)[C@H](CC(=O)O)NC(=O)[C@H](CO)NC(=O)[C@@H](NC(=O)[C@H](Cc1ccccc1)NC(=O)[C@@H](NC(=O)CNC(=O)[C@H](CCC(=O)O)NC(=O)C(C)(C)NC(=O)[C@@H](N)Cc1c[nH]cn1)[C@@H](C)O)[C@@H](C)O)C(C)C)C(=O)N[C@@H](C)C(=O)N[C@@H](Cc1c[nH]c2ccccc12)C(=O)N[C@@H](CC(C)C)C(=O)N[C@H](C(=O)N[C@@H](CCCNC(=N)N)C(=O)NCC(=O)N[C@@H](CCCNC(=N)N)C(=O)NCC(=O)O)C(C)C [Compound 6] | 70% | 1.15 h | 111% | 92% | 75% | 70 nM
> 1000 nM | CC[C@H](C)[C@H](NC(=O)[C@H](Cc1ccccc1)NC(=O)[C@H](CCC(=O)O)NC(=O)[C@H](CCCCNC(=O)CCOCCOCCOCCOCCOCCOCCOCCOCCOCCOCCOCCOCCOCCOCCOCCOCCOCCOCCOCCOCCOCCOCCOCCOCCNC(=O)C(CCCCCCCCCCCCCCC(=O)O)(CCCCCCCCCCCCCCC(=O)O)C(=O)O)NC(=O)[C@H](C)NC(=O)[C@H](C)NC(=O)[C@H](CCC(N)=O)NC(=O)CNC(=O)[C@H](CCC(=O)O)NC(=O)[C@H](CC(C)C)NC(=O)[C@H](Cc1ccc(O)cc1)NC(=O)[C@H](CO)NC(=O)[C@H](CO)NC(=O)[C@@H](NC(=O)[C@H](CC(=O)O)NC(=O)[C@H](CO)NC(=O)[C@@H](NC(=O)[C@H](Cc1ccccc1)NC(=O)[C@@H](NC(=O)CNC(=O)[C@H](CCC(=O)O)NC(=O)C(C)(C)NC(=O)[C@@H](N)Cc1c[nH]cn1)[C@@H](C)O)[C@@H](C)O)C(C)C)C(=O)N[C@@H](C)C(=O)N[C@@H](Cc1c[nH]c2ccccc12)C(=O)N[C@@H](CC(C)C)C(=O)N[C@H](C(=O)N[C@@H](CCCNC(=N)N)C(=O)NCC(=O)N[C@@H](CCCNC(=N)N)C(=O)NCC(=O)O)C(C)C [Compound 9] |  |  | 107% | 22% | 37% | > 2000 nM
 | CC[C@H](C)[C@H](NC(=O)[C@H](Cc1ccccc1)NC(=O)[C@H](CCC(=O)O)NC(=O)[C@H](CCCCNC(=O)CCOCCOCCOCCOCCOCCOCCOCCOCCOCCOCCOCCOCCOCCOCCOCCOCCOCCOCCOCCOCCOCCOCCOCCOCCNC(=O)C(CCCCCCCCCCCCCC(=O)O)(CCCCCCCCCCCCCC(=O)O)C(=O)O)NC(=O)[C@H](C)NC(=O)[C@H](C)NC(=O)[C@H](CCC(N)=O)NC(=O)CNC(=O)[C@H](CCC(=O)O)NC(=O)[C@H](CC(C)C)NC(=O)[C@H](Cc1ccc(O)cc1)NC(=O)[C@H](CO)NC(=O)[C@H](CO)NC(=O)[C@@H](NC(=O)[C@H](CC(=O)O)NC(=O)[C@H](CO)NC(=O)[C@@H](NC(=O)[C@H](Cc1ccccc1)NC(=O)[C@@H](NC(=O)CNC(=O)[C@H](CCC(=O)O)NC(=O)C(C)(C)NC(=O)[C@@H](N)Cc1c[nH]cn1)[C@@H](C)O)[C@@H](C)O)C(C)C)C(=O)N[C@@H](C)C(=O)N[C@@H](Cc1c[nH]c2ccccc12)C(=O)N[C@@H](CC(C)C)C(=O)N[C@H](C(=O)N[C@@H](CCCNC(=N)N)C(=O)NCC(=O)N[C@@H](CCCNC(=N)N)C(=O)NCC(=O)O)C(C)C [Compound 8] |  |  | 106% |  |  | 
